Test results from PubChem BioAssay (NCI).
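Growth conditions: 96-well plates. Treatment: test compound, 48 hours, 5 concentrations. Analysis: linear interpolation between bracketing concentrations; unreached endpoints set to highest concentration. GI50 is the concentration that inhibits growth by half. At the TGI there is no net growth.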 Where a SMILES comes first, the peptide text is derived from it. [ ]: non-standard residue; d: D form. The star is where a group is joined. Bn2Val = CC(C)[C@@H](C(=O)*)N(Cc1ccccc1)Cc1ccccc1; NH(4-Cl-benzyl) = Clc1ccc(CN*)cc1; NMeV = CN[C@H](C(=O)O)C(C)C; dNMeA = CN[C@H](C)C(=O)O

Legend:
Experiment in all cases: inhibition of tumour cell growth, NCI panel, 48 h
[1] = system: NCI/ADR-RES ovarian
[2] = system: SF-539 CNS
[3] = system: 786-0 renal
[4] = system: SNB-19 CNS
[5] = system: MDA-N
[6] = system: IGROV1 ovarian
[7] = system: NCI-H460 lung
[8] = system: SF-268 CNS
[9] = system: HCT-15 colon
[10] = system: T-47D breast

| Structure (SMILES) | TGI [1] [µM] | TGI [2] [µM] | TGI [3] [µM] | TGI [4] [µM] | TGI [5] [µM] | TGI [6] [µM] | TGI [7] [µM] | TGI [8] [µM] | TGI [9] [µM] | TGI [10] [µM] | GI50 [2] [µM] | GI50 [5] [µM] | GI50 [9] [µM] |
| --- | --- | --- | --- | --- | --- | --- | --- | --- | --- | --- | --- | --- | --- |
| Cc1c(C(=O)OCc2ccccc2)[n+](=O)c2cc(Cl)c(Cl)cc2n1[O-] | 48.4 | 55.9 | 30.5 | 68.1 | 40.7 | 19 | 30.7 | 39.8 | 34.1 | 23.6 |  |  |  |
| COc1cc(C2c3cc4c(cc3C3OC[C@@H]2C3CO)OCO4)cc(OC)c1OC (stereo partly drawn) | 39.3 | 37.3 | > 100 | > 100 | 36.1 | > 100 | 47.8 | > 100 | 71.5 | > 100 | 17.7 |  |  |
| CCCCCCCCCCCCCCCCCCNc1nc(=O)n(C2CC(O)C(COP(=O)(O)O)O2)cc1F (stereo not drawn) | > 100 | > 100 | > 100 | > 100 | > 100 | > 100 | > 100 | > 100 | > 100 | > 100 |  |  |  |
| Cc1cc2c([nH]c3ccccc32)c(O)c1-c1c(C)cc2c([nH]c3ccccc32)c1O | 29.4 | 31.7 | 26.6 | 32.2 | 27.8 | 25.2 | 16.7 | 27.4 | 23.8 | 31.3 |  | 14.7 | 10.1 |
| COc1ccc(C(=O)CC(c2ccccc2)[C@H]2C(c3ccc(OC)cc3)=Nc3c(nc(SC)n(C)c3=O)NC2c2ccccc2)cc1 (stereo partly drawn) | > 100 | > 100 | > 100 | > 100 | > 100 | > 100 | > 100 | > 100 | > 100 | > 100 |  |  |  |
| C/C(=N\Nc1nc2ccccc2n1C)c1cc2ccccc2cn1 | 1.55 | 14.5 | 3.82 | 14.6 | 16.6 | 0.423 | 7.05 | 11.7 | 20.7 | 5.66 |  |  |  |
| Cn1c(-c2ccc(/C=N/NC(=S)N/N=C/c3ccc(-c4c[n+]5ccsc5n4C)cc3)cc2)c[n+]2ccsc12 | > 100 | > 100 | > 100 | > 100 | > 100 | > 100 | > 100 | > 100 | > 100 | > 100 |  |  |  |
| CC(C)[C@H](NC(=O)[C@H](C(C)C)N(Cc1ccccc1)Cc1ccccc1)C(=O)N(C)[C@H](C(=O)N1CCC[C@H]1C(=O)N(C)[C@H](C)C(=O)NCc1ccc(Cl)cc1)C(C)C (Bn2Val-V[NMeV]P[dNMeA]-{NH(4-Cl-benzyl)}) | 95.7 | 62.3 | 28.7 | > 100 | 30.9 | 8.3 | > 100 | 11.2 | 41.2 | > 100 |  |  |  |
